In patent publication US7214690B2, “Tricyclic quinolinone and tricyclic quinoline androgen receptor modulator compounds and methods” (Ligand Pharmaceuticals Incorporated, priority 2001, dated 2007):

Legend:
Format in all cases: cell-based
PR = molecular target: T1, PR (Homo sapiens, UniProt P06401); test: co-transfection assay, PR
T1 construct: expressed in transfected cells; host or cells: background cell substantially devoid of endogenous IRs (CV-1 described for the co-transfection assay)
T1 sequence (P06401 1-933): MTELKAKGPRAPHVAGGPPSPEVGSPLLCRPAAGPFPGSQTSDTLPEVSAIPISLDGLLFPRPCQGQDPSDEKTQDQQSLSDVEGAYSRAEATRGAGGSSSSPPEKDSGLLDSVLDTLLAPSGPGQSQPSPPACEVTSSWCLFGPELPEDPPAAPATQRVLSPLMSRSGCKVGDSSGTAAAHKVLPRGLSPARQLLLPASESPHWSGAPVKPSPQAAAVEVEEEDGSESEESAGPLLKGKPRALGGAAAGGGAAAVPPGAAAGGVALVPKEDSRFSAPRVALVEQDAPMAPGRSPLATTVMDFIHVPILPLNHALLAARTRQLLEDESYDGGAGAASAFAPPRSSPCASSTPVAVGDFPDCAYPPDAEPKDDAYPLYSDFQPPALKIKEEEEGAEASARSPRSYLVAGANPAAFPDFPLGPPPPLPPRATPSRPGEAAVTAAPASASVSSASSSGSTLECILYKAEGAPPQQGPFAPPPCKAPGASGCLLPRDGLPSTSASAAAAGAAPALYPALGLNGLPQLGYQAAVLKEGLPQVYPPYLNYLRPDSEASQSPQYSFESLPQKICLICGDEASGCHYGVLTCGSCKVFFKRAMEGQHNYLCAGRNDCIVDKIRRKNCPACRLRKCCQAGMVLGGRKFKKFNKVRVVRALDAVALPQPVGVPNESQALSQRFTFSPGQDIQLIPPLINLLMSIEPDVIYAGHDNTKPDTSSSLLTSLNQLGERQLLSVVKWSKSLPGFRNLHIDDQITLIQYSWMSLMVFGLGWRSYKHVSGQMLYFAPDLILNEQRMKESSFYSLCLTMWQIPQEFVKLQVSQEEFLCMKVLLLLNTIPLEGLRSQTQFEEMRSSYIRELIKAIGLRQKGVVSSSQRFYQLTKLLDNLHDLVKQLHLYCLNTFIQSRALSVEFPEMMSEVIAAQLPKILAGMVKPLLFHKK
Description: (§1) CV-1 cells (African green monkey kidney fibroblasts) were cultured in the presence of Dulbecco's Modified Eagle Medium (DMEM) supplemented with 10% charcoal resin-stripped fetal bovine serum (CH-FBS) then transferred to 96-well microtiter plates one day prior to transfection.
(§2) Three to four replicates were used for each sample.
(§3) After 40 hours, the cells were washed with PBS, lysed with a Triton X-100-based buffer and assayed for LUC and β-Gal activities using a luminometer or spectrophotometer, respectively. For each replicate, the normalized response (NR) was calculated as: LUC response/β-Gal rate • where β-Gal rate=β-Gal/β-Gal incubation time.

GR = molecular target: T2, GR (Homo sapiens, UniProt P04150); test: co-transfection assay, GR
T2 construct: expressed in transfected cells; host or cells: background cell substantially devoid of endogenous IRs (CV-1 described for the co-transfection assay)
T2 sequence (P04150 1-777): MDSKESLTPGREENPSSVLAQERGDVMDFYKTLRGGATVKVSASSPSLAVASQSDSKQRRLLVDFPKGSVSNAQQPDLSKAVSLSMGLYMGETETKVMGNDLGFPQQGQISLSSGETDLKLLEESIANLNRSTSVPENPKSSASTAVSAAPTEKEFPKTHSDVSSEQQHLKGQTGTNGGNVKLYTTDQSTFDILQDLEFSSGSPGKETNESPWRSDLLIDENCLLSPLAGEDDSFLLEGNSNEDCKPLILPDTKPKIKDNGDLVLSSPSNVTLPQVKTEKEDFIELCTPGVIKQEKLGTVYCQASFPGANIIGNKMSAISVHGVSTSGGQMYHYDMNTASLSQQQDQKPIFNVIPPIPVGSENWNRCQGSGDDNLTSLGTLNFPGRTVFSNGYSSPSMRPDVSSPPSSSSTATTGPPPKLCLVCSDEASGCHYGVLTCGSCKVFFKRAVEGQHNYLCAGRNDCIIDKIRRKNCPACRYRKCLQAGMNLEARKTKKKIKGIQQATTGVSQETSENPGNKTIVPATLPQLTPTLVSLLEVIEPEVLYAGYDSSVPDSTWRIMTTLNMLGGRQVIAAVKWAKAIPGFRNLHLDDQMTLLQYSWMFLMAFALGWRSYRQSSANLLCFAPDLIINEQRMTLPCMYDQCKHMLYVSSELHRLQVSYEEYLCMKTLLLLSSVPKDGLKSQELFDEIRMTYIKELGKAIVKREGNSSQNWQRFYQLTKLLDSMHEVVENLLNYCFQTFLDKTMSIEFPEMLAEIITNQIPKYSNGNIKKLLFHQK
Description: as §1, §2, §3

ER = molecular target: T3, ER (Homo sapiens, UniProt P03372); test: co-transfection assay, ER
T3 construct: expressed in transfected cells; host or cells: background cell substantially devoid of endogenous IRs (CV-1 described for the co-transfection assay)
T3 sequence (P03372 1-595): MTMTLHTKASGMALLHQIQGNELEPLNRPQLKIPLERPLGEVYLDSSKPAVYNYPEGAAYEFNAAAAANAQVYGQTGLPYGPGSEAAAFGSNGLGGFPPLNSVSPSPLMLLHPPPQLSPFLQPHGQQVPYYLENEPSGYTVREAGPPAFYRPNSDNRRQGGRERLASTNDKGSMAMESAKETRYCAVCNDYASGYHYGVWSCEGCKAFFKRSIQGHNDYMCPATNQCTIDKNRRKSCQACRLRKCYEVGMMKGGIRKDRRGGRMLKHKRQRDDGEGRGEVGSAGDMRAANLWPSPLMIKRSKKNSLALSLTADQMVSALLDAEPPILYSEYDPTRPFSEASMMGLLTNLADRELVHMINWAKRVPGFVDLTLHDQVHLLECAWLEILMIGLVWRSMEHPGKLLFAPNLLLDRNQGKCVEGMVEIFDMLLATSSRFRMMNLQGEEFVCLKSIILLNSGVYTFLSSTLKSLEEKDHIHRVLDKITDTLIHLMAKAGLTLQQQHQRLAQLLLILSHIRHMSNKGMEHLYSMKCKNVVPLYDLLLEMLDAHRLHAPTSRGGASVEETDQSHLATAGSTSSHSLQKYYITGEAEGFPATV
Description: as §1, §2, §3

| Structure (SMILES) | EC50 (PR) | IC50 (GR) | EC50 (ER) | IC50 (ER) |
| --- | --- | --- | --- | --- |
| C=CCN1c2ccc3[nH]c(=O)cc(C(F)(F)F)c3c2OC[C@H]1CC [Compound 114, (3R)-4-Allyl-3-ethyl-2,3,4,7-tetrahydro-10-(trifluoromethyl)-8H-[1,4]oxazino[2,3-f]quinolin-8-one] | > 10 µM | 5.9 µM | > 10 µM | > 10 µM |
| CC[C@@H]1COc2c(ccc3[nH]c(=O)cc(C(F)(F)F)c23)N1CC(F)(F)F [Compound 110, (3R)-3-Ethyl-2,3,4,7-tetrahydro-4-(2,2,2-trifluoroethyl)-10-(trifluoromethyl)-8H-[1,4]oxazino[2,3-f]quinolin-8-one] | > 10 µM | – | > 10 µM | > 10 µM |
| CC(C)[C@@H]1COc2c(ccc3[nH]c(=O)cc(C(F)(F)F)c23)N1CC(F)(F)Cl [Compound 124, (3R)-4-(2-Chloro-2,2-difluoroethyl)-2,3,4,7-tetrahydro-3-isopropyl-10-(trifluoromethyl)-8H-[1,4]oxazino[2,3-f]quinolin-8-one] | > 10 µM | 2.4 µM | > 10 µM | > 10 µM |
